{
  "source": "paper PMC9137581",
  "about": "“Identification of a Novel Class of Anti-Melanogenic Compounds, (Z)-5-(Substituted benzylidene)-3-phenyl-2-thioxothiazolidin-4-one Derivatives, and Their Reactive Oxygen Species Scavenging Activities” (Antioxidants, 2022)",
  "key": {"[1]": {"biological_target": "T1, mushroom tyrosinase (Agaricus bisporus, UniProt C7FF04)", "T1 construct": "purchased Sigma-Aldrich", "T1 sequence (C7FF04 1-392)": "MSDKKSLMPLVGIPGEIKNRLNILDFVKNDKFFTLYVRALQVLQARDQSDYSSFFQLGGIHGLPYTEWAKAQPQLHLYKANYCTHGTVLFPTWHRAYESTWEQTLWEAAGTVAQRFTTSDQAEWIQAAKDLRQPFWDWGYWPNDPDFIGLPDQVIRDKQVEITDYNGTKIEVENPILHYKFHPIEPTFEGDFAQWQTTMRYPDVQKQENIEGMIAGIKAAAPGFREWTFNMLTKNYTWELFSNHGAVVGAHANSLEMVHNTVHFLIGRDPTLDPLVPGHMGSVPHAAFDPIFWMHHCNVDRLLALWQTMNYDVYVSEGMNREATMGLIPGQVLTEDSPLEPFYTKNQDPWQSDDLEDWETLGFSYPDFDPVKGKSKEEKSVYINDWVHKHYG", "assay": "Kinetic studies of mushroom tyrosinase inhibition (L-DOPA; Lineweaver–Burk and Dixon plots)", "format": "biochemical", "details": "for mode of action (type of inhibition): Lineweaver–Burk plots; for Ki: determined using Dixon plots, L-DOPA substrate", "method": "The Michael constants (KM), inhibition constants (Ki), and Lineweaver–Burk and Dixon plots of the analogs were used in order to determine their modes of action. […] The initial rates of dopachrome production in the reaction mixtures were calculated by measuring the increases in absorbance at 492 nm (ΔOD492/min) using a microplate reader (VersaMax™, Molecular Devices, Sunnyvale, CA, USA). The maximal reaction velocity (Vmax) was determined using Lineweaver–Burk plots (plots of the inverse of the reaction rate (1/V) versus the inverse of the substrate concentration (1/[S])) that were obtained using six different L-DOPA concentrations. The mode of action of each analog was determined using the convergence point of the four plot lines.\n. Lineweaver–Burk plots were used in order to determine the modes of action of these four analogs (Figure 4). Mushroom tyrosinase inhibition plots were obtained using six different L-DOPA (substrate) concentrations and four different concentrations of each analog. […] On the other hand, the Michaelis–Menten constants (KM) increased upon the increase of the analogs’ concentrations (Table 3). The KM values of the analogs were 1.042, 1.193, 1.433, and 2.159 mM at analog 1 concentrations of 0, 1, 2, and 4 µM; 1.077, 2.117, 2.899, and 4.865 mM at analog 2 concentrations of 0, 2.5, 5, and 10 µM; […]; and 1.030, 1.243, 1.531, and 1.885 mM at analog 6 concentrations of 0, 1, 2, and 4 µM. The mean of the Vmax values that were determined from the Lineweaver–Burk plots was 0.0171 mM/min. In order to determine the inhibition constants (Ki) for the mushroom tyrosinase–analog complexes, the Lineweaver–Burk plots were converted into their corresponding Dixon plots (Figure 5), in which 1/V (where V is the initial reaction velocity) was plotted against the inhibitor concentration [I] at different L-DOPA [S] concentrations."}, "[2]": {"assay": "Calculated log p (ChemDraw Ultra 12.0)", "details": "from calculated log p 3.16 vs. –2.45", "source_text": "In order to determine how well the (Z)-BPTT analogs are absorbed by skin, their log p (partition coefficient) values were examined using ChemDraw Ultra Ver. 12.0."}, "[3]": {"system": "tyrosinase", "assay": "Western blot of cytosolic tyrosinase protein", "format": "cell-based, murine", "details": "2.5–20 µM, 24 h, cytosolic fraction, B16F10 cells", "method": "B16F10 cells were treated with five concentrations (0, 2.5, 5, 10, and 20 µM) of analog 2 for 24 h, washed twice with cold PBS, and then harvested. Pellets were then suspended in buffer A [NaBu, β-glycerophosphate, 1 M HEPES, 100 mM MgCl, 500 mM DTT, 100 mM NaF, 10 mM Na-orthovanadate, pepstatin, aprotinin, leupeptin, 1% NP-40, and PMSF], incubated on ice for 20 min, and then centrifuged at 12,000 rpm for 10 min at 4 °C. The supernatants that were obtained contained cytosolic fractions. The pellets were resuspended in buffer B [NaBu, β-glycerophosphate, 1 M HEPES, 5 M NaCl, 10 mM Na-orthovanadate, pepstatin, aprotinin, leupeptin, 100 mM NaF, 100 mM EDTA, and PMSF], incubated on ice for 30 min, and then centrifuged at 12,000 rpm for 20 min at 4 °C. The resultant supernatants contained nuclear fractions.\nProtein concentrations were determined using a BCA™ protein assay kit (Pierce, Rockford, IL, USA). Briefly, lysed samples were boiled for 10 min in gel-loading buffer (0.125 M Tris-HCl, pH 6.8, 4% SDS, 10% 2-mercaptoethanol, and 0.2% bromophenol blue) at a volume ratio of 1:1. […] The western blot data were quantified using CS Analyser 3.2 (Densitograph) image analysis software (http://www.attokorea.co.kr, accessed on 4 March 2022)."}, "[4]": {"system": "tyrosinase", "assay": "qRT-PCR of tyrosinase mRNA", "format": "cell-based, murine", "details": "versus non-treated controls, B16F10 cells", "method": "(§1) The total RNAs from the cells were purified using the RiboEx Total RNA solution (GeneAll Biotechnology, Seoul, Korea) and the cDNA was synthesized from the total RNA (2 µg) using SuPrimeScript RT Premix with random hexamer (GeNet Bio, Daejeon, Korea), according to the manufacturers’ instructions. Real-time qPCR was performed using SensiFASTTM SYBR® No-ROX dye (Bioline, London, UK) and a CFX Connect System (Bio-Rad Laboratories, Hercules, CA, USA). The qRT-PCR primers that are specifically for tyrosinase, TRP-1, TRP-2, and β-actin were obtained from Bioneer Inc. (Daejeon, Korea). The relative gene expressions were calculated using the standard curve method and β-actin as the internal control."}, "[5]": {"system": "TRP-1", "assay": "qRT-PCR of TRP-1 mRNA", "format": "cell-based, murine", "details": "versus non-treated controls, B16F10 cells", "method": "as §1"}, "[6]": {"system": "TRP-2", "assay": "qRT-PCR of TRP-2 mRNA", "format": "cell-based, murine", "details": "versus non-treated controls, B16F10 cells", "method": "as §1"}},
  "data": [
    {"smiles": "O=C1/C(=C/c2ccc(O)cc2O)SC(=S)N1c1ccccc1", "note": "[Analog 3, (Z)-5-(2,4-Dihydroxybenzylidene)-3-phenyl-2-thioxothiazolidin-4-one]", "values": [
      {"measurement": "mode of action (type of inhibition)", "setting": "[1]", "value": "competitive"},
      {"measurement": "Ki", "setting": "[1]", "value": 0.708, "unit": "µM"},
      {"measurement": "partition coefficient relative to kojic acid", "setting": "[2]", "value": "10^5 fold"}
    ]},
    {"smiles": "O=C1/C(=C/c2ccc(O)c(O)c2)SC(=S)N1c1ccccc1", "note": "[Analog 2, (Z)-5-(3,4-Dihydroxybenzylidene)-3-phenyl-2-thioxothiazolidin-4-one]", "values": [
      {"measurement": "mode of action (type of inhibition)", "setting": "[1]", "value": "competitive"},
      {"measurement": "Ki", "setting": "[1]", "value": 3.18, "unit": "µM"},
      {"measurement": "tyrosinase protein level", "setting": "[3]", "value": "significantly and concentration-dependently reduced"},
      {"measurement": "tyrosinase mRNA expression level", "setting": "[4]", "value": "significantly and concentration-dependently reduced"},
      {"measurement": "TRP-1 mRNA expression level", "setting": "[5]", "value": "significantly and concentration-dependently reduced"},
      {"measurement": "TRP-2 mRNA expression level", "setting": "[6]", "value": "significantly and concentration-dependently reduced"},
      {"measurement": "partition coefficient relative to kojic acid", "setting": "[2]", "value": "10^5 fold"}
    ]},
    {"smiles": "COc1ccc(/C=C2\\SC(=S)N(c3ccccc3)C2=O)cc1O", "note": "[Analog 6, (Z)-5-(3-Hydroxy-4-methoxybenzylidene)-3-phenyl-2-thioxothiazolidin-4-one]", "values": [
      {"measurement": "mode of action (type of inhibition)", "setting": "[1]", "value": "competitive"},
      {"measurement": "Ki", "setting": "[1]", "value": 3.23, "unit": "µM"}
    ]},
    {"smiles": "O=C1/C(=C/c2ccc(O)cc2)SC(=S)N1c1ccccc1", "note": "[Analog 1, (Z)-5-(4-Hydroxybenzylidene)-3-phenyl-2-thioxothiazolidin-4-one]", "values": [
      {"measurement": "mode of action (type of inhibition)", "setting": "[1]", "value": "competitive"},
      {"measurement": "Ki", "setting": "[1]", "value": 4.67, "unit": "µM"}
    ]}
  ]
}
